For data set [1], the system named is MDR1-MDCK cell monolayers. The following applies: dog, MDCK-MDR1, 120 min, 5 μM, pH 7.4.
Experimental: (§1) The permeability of compounds is assessed for BBB penetration potential by use of an MDCK-MDR1 assay (Catalog EA203) performed by Absorption Systems, Exton PA.
(§2) MDR1-MDCK cell monolayers are grown to confluence on collagen-coated, microporous membranes in 12-well assay plates. The permeability assay buffer is Hanks' balanced salt solution containing 10 mM HEPES and 15 mM glucose at a pH of 7.4. The buffer in the receiver chamber also contained 1% bovine serum albumin. The dosing solution concentration is 5 μM of test article in the assay buffer. Cell monolayers are dosed on the apical side (A-to-B) or basolateral side (B-to-A) and incubated at 37° C. with 5% CO2 in a humidified incubator. Samples are taken from the donor and receiver chambers at 120 minutes. Each determination is performed in duplicate. The flux of lucifer yellow is also measured post-experimentally for each monolayer to ensure no damage is inflicted to the cell monolayers during the flux period. All samples are assayed by LC-MS/MS using electrospray ionization.
(§3) Efflux ratio (ER) is defined as Papp (B-to-A)/Papp (A-to-B).
(§4) • Column: Waters ACQUITY UPLC BEH Phenyl 30×2.1 mm, 1.7 μm • M.P. Buffer: 25 mM ammonium formate buffer, pH 3.5 • Aqueous Reservoir (A): 90% water, 10% buffer • Organic Reservoir (B): 90% acetonitrile, 10% buffer • Flow Rate: 0.7 mL/minute Gradient Program:
(§5) • Total Run Time: 1.00 minute • Autosampler: 2 μL injection volume • Wash1: water/methanol/2-propanol:1/1/1; with 0.2% formic acid • Wash2: 0.1% formic acid in water
Data set [2] concerns MDR1. As to the kind of experiment: in vitro. The following applies: dog, MDCK-MDR1, pH 7.4.
Experimental: as §1, §2, §3, §4, §5
Data set [3] has as its system SMN protein. Kind of data set: SMN protein assay (MSD) in SMA patient fibroblasts (GM03813). The following applies: SMN protein by MSD, SMA patient fibroblasts GM03813, 48 hours. The class given is cell-based, human. The method, then: Compounds were tested on spinal muscular atrophy (SMA) patient fibroblasts (GM03813, Coriell) at doses ranging from 2.5 μM to 0.6 nM. 7000 cells/well were seeded in 96-well plates. Compounds were incubated for 48 hours and the cells were lysed with 100 μL of lysis buffer. 20 μL of lysate was used for SMN protein measurement by Mesoscale Discovery (MSD) assay developed by PharmOptima (Michigan). A standard curve prepared with SMN protein ranging from 1 μg/ml to 19.5 pg/ml was used in each MSD plate to calculate the absolute SMN protein amount in each sample.

For data set [4], the system named is SMN FL. As to the kind of experiment: Quantitative splicing assay (SMN) in SMA patient fibroblasts (GM03813). The format is cell-based. Conditions: Homo sapiens, Fibroblast; SMA patient fibroblasts GM03813, 24 h, qPCR. The method, then: Spinal muscular atrophy (SMA) patient fibroblasts (GM03813, Coriell) are plated in 96-well plates at 50,000 cells/well. Immediately after plating, cells are dosed with compounds for 24 h at concentrations ranging from 2.5 μM to 0.6 nM (0.1% DMSO). Treated cells are lysed and cDNA synthesized using the Fast Advanced Cells-to-Ct kit (Thermofisher A35378) according to the manufacturer's instructions. 2 μL of each cDNA are used in qPCR reactions. The qPCR reactions are prepared in 384-well plates in 10 μL volume, using TaqMan™ Fast Advanced Master Mix (ThermoFisher; 4444965) with primers and probes shown in the table below. Reactions are run in a Quant Studio 6 qPCR instrument with default settings.

The values that follow come from US12612397B2, “Methods and compositions for modulating splicing” (Skyhawk Therapeutics, Inc., priority 2019, dated 2026).

One may read the Papp A→B as how fast a substance crosses the layer from the apical side. High values mean ready permeation, low ones poor permeation. What is called Papp B→A is the apparent permeability from the basolateral to the apical side of a cell layer. Usually efflux ratio stands for a quotient of directional permeabilities that is used to spot active efflux. As a reminder, the EC50 is the concentration giving half of the maximal effect. Low readings indicate an effect from little substance, high ones a need for much substance.

Turning to `CN(C)C(=O)c1cc2cc(O)c(-c3cnc(N(C)[C@@H]4C[C@H]5CC[C@H](N5)[C@@H]4F)nn3)cc2o1` (single isomer, unassigned) [Compound 9A], in data set [1], the “MDCK-MDR1: % Recov A-B” value amounted to 92% and the “MDCK-MDR1: % Recov B-A” value came to 100%. For the same molecule, in data set [2], the apparent permeability from apical to basolateral (Papp A→B) at 120 min, 5 μM is 2.55 ×10⁻⁶ cm/s; the Papp B→A at 120 min, 5 μM was 61.2 ×10⁻⁶ cm/s; the efflux ratio at 120 min, 5 μM turned out to be 24.

Regarding `CN(c1ncc(-c2ccc(-c3cnn(C)c3)cc2O)nn1)[C@@H]1C[C@H]2CCC[C@H](N2)[C@@H]1F` (single isomer, unassigned) [Compound 2A], the EC50 in data set [3] fell in the range of 51 to 100 nM. In data set [1], the “MDCK-MDR1: % Recov A-B” value was 81% and the “MDCK-MDR1: % Recov B-A” value amounted to 84%. Also, in data set [2], the apical-to-basolateral permeability (Papp A→B) at 120 min, 5 μM was determined as 4.48 ×10⁻⁶ cm/s; the Papp B→A at 120 min, 5 μM is 30.3 ×10⁻⁶ cm/s; the efflux ratio at 120 min, 5 μM turned out to be 7.

Take `CN(c1ncc(-c2cc3ccncc3s2)nn1)[C@H]1C[C@@H]2CC[C@@H](N2)[C@H]1F` (single isomer, unassigned) [Compound 8B]: the EC50 in data set [3] lay in the range of 501 to 10000 nM. Further, in data set [1], the “MDCK-MDR1: % Recov A-B” value was found to be 79% and the “MDCK-MDR1: % Recov B-A” value is reported as 81%. For the same molecule, in data set [2], the apical-to-basolateral permeability (Papp A→B) at 120 min, 5 μM was determined as 12.9 ×10⁻⁶ cm/s; the apparent permeability from basolateral to apical (Papp B→A) at 120 min, 5 μM turned out to be 49.6 ×10⁻⁶ cm/s; the efflux ratio at 120 min, 5 μM was found to be 4.

Molecule `CN(c1ncc(-c2ccc(-c3cn[nH]c3)cc2O)nn1)[C@H]1C[C@@H]2CC[C@@H](N2)[C@H]1F` (single isomer, unassigned) [Compound 1B] gave a concentration for a half-maximal effect (EC50) in data set [4] of 101 to 500 nM. Also, in data set [3], the EC50 lay in the range of 0.01 to 15 nM. Moreover, in data set [1], the “MDCK-MDR1: % Recov A-B” value is recorded as 78% and the “MDCK-MDR1: % Recov B-A” value was determined as 90%. In addition, in data set [2], the Papp A→B at 120 min, 5 μM turned out to be 2.95 ×10⁻⁶ cm/s; the Papp B→A at 120 min, 5 μM came out at 33.2 ×10⁻⁶ cm/s; the efflux ratio at 120 min, 5 μM is 11.

In the case of `CN(c1ncc(-c2ccc(-c3cn[nH]c3)cc2O)nn1)[C@@H]1C[C@H]2CC[C@H](N2)[C@@H]1F` (single isomer, unassigned) [Compound 1A], the EC50 in data set [4] lay within 0.01 to 15 nM. Besides, the EC50 in data set [3] fell in the range of 16 to 50 nM. For the same molecule, in data set [1], the “MDCK-MDR1: % Recov A-B” value stood at 86% and the “MDCK-MDR1: % Recov B-A” value is listed as 89%. In data set [2], the Papp A→B at 120 min, 5 μM was 3.47 ×10⁻⁶ cm/s; the Papp B→A at 120 min, 5 μM amounted to 51.6 ×10⁻⁶ cm/s; the efflux ratio at 120 min, 5 μM came to 15.

`CN(C)C(=O)c1cc2cc(O)c(-c3cnc(N(C)[C@H]4C[C@@H]5CC[C@@H](N5)[C@H]4F)nn3)cc2o1` (single isomer, unassigned) [Compound 9B]: in data set [1], the “MDCK-MDR1: % Recov A-B” value worked out at 88% and the “MDCK-MDR1: % Recov B-A” value was 97%. In addition, in data set [2], the apical-to-basolateral permeability (Papp A→B) at 120 min, 5 μM was 2.4 ×10⁻⁶ cm/s; the Papp B→A at 120 min, 5 μM is 58.5 ×10⁻⁶ cm/s; the efflux ratio at 120 min, 5 μM was 24.

For the molecule `CN(c1ncc(-c2ccc(-c3cnn(C)c3)cc2O)nn1)[C@H]1C[C@@H]2CCC[C@@H](N2)[C@H]1F` (single isomer, unassigned) [Compound 2B], the EC50 in data set [3] lay in the range of 16 to 50 nM. In data set [1], the “MDCK-MDR1: % Recov A-B” value was found to be 69% and the “MDCK-MDR1: % Recov B-A” value is reported as 83%. Moreover, in data set [2], the Papp A→B at 120 min, 5 μM turned out to be 6.89 ×10⁻⁶ cm/s; the Papp B→A at 120 min, 5 μM came out at 32.9 ×10⁻⁶ cm/s; the efflux ratio at 120 min, 5 μM was determined as 5.

As to `CN(c1ncc(-c2cc3ccncc3s2)nn1)[C@@H]1C[C@H]2CC[C@H](N2)[C@@H]1F` (single isomer, unassigned) [Compound 8A], the EC50 in data set [3] was 501 to 10000 nM. Also, in data set [1], the “MDCK-MDR1: % Recov A-B” value was determined as 87% and the “MDCK-MDR1: % Recov B-A” value was 93%. For the same molecule, in data set [2], the Papp A→B at 120 min, 5 μM is 13.5 ×10⁻⁶ cm/s; the Papp B→A at 120 min, 5 μM is 37.3 ×10⁻⁶ cm/s; the efflux ratio at 120 min, 5 μM was 3.
